Data reported in PMC4830886, “Extended evaluation on the ES-D3 cell differentiation assay combined with the BeWo transport model, to predict relative developmental toxicity of triazole compounds” (Archives of Toxicology, 2015).
pIC50: −log10 of the molar value. Marks after values point to notes of the source that are not given here.

What was measured:
time-mated Wistar rats = experiment: in vivo maternal and prenatal developmental toxicity screening study (OECD 414 principles); conditions: rat
Source text: The major differences to a full guideline study were the smaller sample size, using 9–10 instead of at least 16 pregnant rats, per test substance.
The animals were paired by the breeder [time-mated Wistar rats, Crl: WI (Han), Charles River Laboratories, Sulzfeld, Germany], between 10 and 12 weeks of age, and supplied on the day of evidence of mating; this day is referred to as gestational day (GD) 0 and following day as GD 1. […] This strain has been extensively used, both in our laboratory and elsewhere, and is sensitive to reproductive toxicants. All rats were housed individually in Makrolon cages with Lignocel PS 14 fibers dust-free bedding and wooden enrichment blocks. The cages were kept in climate-controlled rooms at 20–24 °C with a relative humidity of 30–70 %, an air exchange rate of 15 times per hour and a 12-h light/dark cycle. Diet (Ground Kliba SA, Switzerland) and tap water were provided ad libitum. In-life data (mortality, clinical signs, body weights and food consumption) were recorded throughout the study, but presented only if relevant for the interpretation of prenatal developmental effects.
The test compounds administered by gavage were administrated between 100 and 600 mg/kg bw/day using the vehicle 1 % carboxymethylcellulose in deionized water. The standard dose volume was 10 ml/kg bw.
On GD 20, the surviving dams were anesthetized with isoflurane, killed by decapitation and examined macroscopically. For each dam, the uterus was opened and the number, distribution and classification of implantation sites (live fetus, early and late fetal resorptions, and dead fetus) were determined. The fetuses were removed, sexed and fetal body weight determined. Gross pathological examination of the fetuses, including assessment of abnormalities of the fetal membranes, placentas, amniotic fluid and umbilical cord, was performed. Subsequently, all fetuses were killed by injection of pentobarbital. […] The other half of the fetuses of each dam was fixed in Harrison’s fluid. […] A permanent structural change that is likely to affect adversely the survival or health was assessed as malformation. A change that also occurs in the fetuses of control animals and/or is unlikely to affect adversely the survival or health was assessed as variation. This includes delays in growth or morphogenesis that have otherwise followed a normal pattern of development.
Maternal toxicity was classified as slight if body weight and/or carcass weight reduction is not above 10 %, moderate if body weight and/or carcass weight reduction is between 10 and 20 % and severe if body weight and/or carcass weight reduction is above 20 %. All the in vivo data are expressed as the affected fetuses/litter.

ES-D3 cells = experiment: ES-D3 cell differentiation assay (differentiation into contracting cardiomyocytes); assay type: cell-based, mouse; conditions: for Corrected BMCd50: BMCd50 divided by relative Papp value (BeWo model); for pIC50: Mus musculus, Cardiomyocyte, 240 h, concentration for 50 % reduction in number of differentiated EBs, BMD modelling, day 10, read-out: BMCd50
Method: The murine ES-D3 cell line was purchased from ATCC (Wesel, Germany). The cells were maintained in polystyrene cell culture flasks (Corning, The Netherlands) in Dulbecco’s modified Eagle’s medium (DMEM, Invitrogen, Breda, The Netherlands), supplemented with 20 % heat-inactivated fetal calf serum (Lonza, BioWhittaker, Verviers, Belgium), 50 U/ml penicillin with 50 μg/ml streptomycin (Invitrogen), 2 mM L-glutamine (Invitrogen), 0.1 mM β-mercaptoethanol (Sigma-Aldrich) and 1 % (v/v) nonessential amino acids (Invitrogen), at 37 °C and 5 % CO2 in a humidified atmosphere. Cells were kept undifferentiated with 1000 U/ml murine leukemia inhibiting factor (LIF) (Sigma-Aldrich) and subcultured every 2–3 days using nonenzymatic cell dissociation solution (Sigma-Aldrich) to detach the cells.
Differentiation assays were carried out to detect the effect of test compounds on the differentiation of ES-D3 cells into contracting cardiomyocytes using culture medium in the absence of LIF. On day 1, droplets of 20 μl cell suspension (3.75 × 10^4 cells/ml) were placed as hanging drops, to which the test compounds 0594, 0595, 0596, 0599, 0600 and 0618 were added at concentrations ranging from 0.2 to 60 μM (final solvent concentration 0.2 % DMSO), on the inner side of the lid of a 96-well plate. Sterile lids of Eppendorf tubes were placed on the corner wells of the plates to prevent contact of the drops with the plate. The wells of the 96-well plate were filled with 250 μl phosphate buffered saline (PBS) (Invitrogen), and the plate was sealed with Micropore tape (3M, Neuss, Germany) to prevent evaporation of the hanging drops. Plates were incubated for 3 days at 37 °C and 5 % CO2 in a humidified atmosphere. In the drops, cells formed embryonic bodies (EBs), which were transferred to nontissue culture-treated Petri dishes (diameter 6 cm, Greiner) with 5 ml of medium with test compound. On day 5, the EBs were transferred to a 24-well plate (Corning) with 1 ml of medium with test compound, with one EB per well. On day 10, the number of wells containing contracting EBs was determined by visual inspection using a light microscope. Solvent control (0.2 % DMSO in culture medium) was included in each experiment. The solvent control was also used to assess the quality of the batch of ES-D3 cells used in each individual test (cells being randomly distributed over test groups and solvent control). Tests were accepted for further analysis if at least 21 of the 24 wells of the solvent control contained contracting cardiomyocytes. For each test compound, three independent assays were performed. The results were expressed as “fraction of total,” with 1.0 implying all EBs in one 24-well plate differentiated into contracting cardiomyocytes.
Different dichotomous concentration–response models were fitted to the in vitro developmental toxicity data obtained from the ES-D3 cell differentiation assay to calculate benchmark concentrations (BMC) using Environmental Protection Agency benchmark dose (BMD) software version 2.4. For each test compound, the BMCd50, representing the concentration for a 50 % reduction in the number of differentiated EBs, was derived. Models included in the evaluation were the gamma, logistic, loglogistic, probit, logprobit, multistage, weibull and the quantal-linear model. […] The lowest BMCd50 value was chosen from the accepted models.
To combine in vitro developmental toxicity data obtained from the ES-D3 cell differentiation assay with placental transfer data obtained from the BeWo transport model, a corrected BMCd50 value was calculated by dividing the BMCd50 values by the relative Papp values, as described in Li et al. ([2015]).

[1] = female, Wistar Crl:WI(Han), in vivo
[2] = gavage GD 6–19, 600 mg/kg, affected fetuses/litter
[3] = gavage GD 6–19, 200 mg/kg, affected fetuses/litter

| Compound | Ranking (in vivo prenatal developmental toxicity potency) (time-mated Wistar rats; [1]) | Early resorption (%) (time-mated Wistar rats; gavage GD 6–19, 200 mg/kg) | Fetal weight (%) (time-mated Wistar rats; gavage GD 6–19, 200 mg/kg) | Late resorption (%) (time-mated Wistar rats; gavage GD 6–19, 200 mg/kg) | Maternal toxicity classification (time-mated Wistar rats; gavage GD 6–19, 200 mg/kg) | Maternal toxicity findings (time-mated Wistar rats; gavage GD 6–19, 200 mg/kg) | Placenta weight (%) (time-mated Wistar rats; gavage GD 6–19, 200 mg/kg) | Postimplantation loss (%) (time-mated Wistar rats; gavage GD 6–19, 200 mg/kg) | Total number of fetuses (time-mated Wistar rats; gavage GD 6–19, 200 mg/kg) | Early resorption (%) (time-mated Wistar rats; gavage GD 6–19, 600 mg/kg) | Fetal weight (%) (time-mated Wistar rats; gavage GD 6–19, 600 mg/kg) | Late resorption (%) (time-mated Wistar rats; gavage GD 6–19, 600 mg/kg) | Placenta weight (%) (time-mated Wistar rats; gavage GD 6–19, 600 mg/kg) | Postimplantation loss (%) (time-mated Wistar rats; gavage GD 6–19, 600 mg/kg) | Total number of fetuses (time-mated Wistar rats; gavage GD 6–19, 600 mg/kg) | Corrected BMCd50 (ES-D3 cells) [µM] | pIC50 (ES-D3 cells) | also measured |
| --- | --- | --- | --- | --- | --- | --- | --- | --- | --- | --- | --- | --- | --- | --- | --- | --- | --- | --- |
| OC(c1cccnc1)c1c(-c2ccc(F)cc2F)noc1-c1ccc(Cl)cc1F (stereo not shown) [compound 0594, [5-(4-Chloro-2-fluoro-phenyl)-3-(2,4-difluoro-phenyl)-isoxazol-4-yl]-pyridin-3-yl-methanol] | 4 | 5.9 | 107 | 1.9 | No | No | 110% | 7.8 | 99 | 14.1 | 101 | 0.8 | 116 | 14.9% | 98 | 23.3 | 5.16 | Bent femur (time-mated Wistar rats; [2]): Bent femur 12.5% |
| OC(c1cccnc1)c1c(-c2ccc(F)cc2F)csc1-c1ccc(F)cc1F (stereo not shown) [compound 0595, [2,4-Bis-(2,4-difluoro-phenyl)-thiophen-3-yl]-pyridin-3-yl-methanol] | 6 | 21.9 | 102 | 2.0 | No | NAD | 117% | 24 | 74 | 100 | – | 0.0 | – | 100.0** % | 0 | 141.8 | 4.96 | Malformation, Total (skeletal) (time-mated Wistar rats; [3]): Total 0%; Maternal body weight (BW) (time-mated Wistar rats; gavage GD 6–19, 600 mg/kg): 74%; Maternal carcass weight (CW) (time-mated Wistar rats; gavage GD 6–19, 600 mg/kg): 89%; Maternal mortality (time-mated Wistar rats; gavage GD 6–19, 600 mg/kg): 30%; teratogenic potential (time-mated Wistar rats; overall assessment of the in vivo study): no teratogenic potential |
| CC(c1nc(-c2ccc(C#N)cc2)cs1)C(O)(Cn1cncn1)c1ccc(F)cc1 (stereo not shown) [compound 0596, 4-{2-[2-(4-Fluoro-phenyl)-2-hydroxy-1-methyl-3-[1,2,4]triazol-1-yl-propyl]-thiazol-4-yl}-benzonitrile] | – | 2.9 | 108 | 0.0 | No | NAD | 127** % | 2.9 | 109 | 7.7 | 105 | 0.8 | 133 | 8.6% | 102 | 18.1 | 4.94 | Misshapen basisphenoid (time-mated Wistar rats; [3]): 30.6%; Misshapen cervical arch (time-mated Wistar rats; [3]): 14.3%; Severely malformed skull bones (time-mated Wistar rats; [3]): 5.3%; Maternal toxicity classification (time-mated Wistar rats; gavage GD 6–19, 600 mg/kg): No; Maternal toxicity findings (time-mated Wistar rats; gavage GD 6–19, 600 mg/kg): NAD; Malformation, Total (skeletal) (time-mated Wistar rats; [2]): Total 100 %**; Misshapen basisphenoid (time-mated Wistar rats; [2]): 13%; Misshapen cervical arch (time-mated Wistar rats; [2]): 70.2%; Severely malformed skull bones (time-mated Wistar rats; [2]): 82.8%; Ranking (in vivo prenatal developmental toxicity potency) (time-mated Wistar rats; 1 = highest potential, 6 = lowest, among the six test compounds): 2 |
